Consider 62 compounds from a melting point compilation (Tetko et al.; mined from patent text by program, amines drawn as free bases though some values may be those of a salt).

Usually melting point stands for the temperature of the solid-liquid transition. On to `O=C1c2cc3nnn(C4CC4)c(=O)c3cc2OC2CCCN12` (configuration not stated), for which the melting point was 215 to 217 °C.

`O=C(c1ccnc(Cl)c1)N1CC(c2ccc(F)cc2)C2(CCN(Cc3ccccc3)CC2)C1` (configuration not stated): the melting point is 70 to 72 °C.

Compound `COc1c(C)cc(C(=O)CCC(=O)O)cc1C` had a melting point of 108 °C.

In turn, `CCCCCCCCCCSCCCCCCCCCCNC(=O)OCCN1CCOCC1` had a melting point of 91 °C.

Compound `O=C(C1CCN(c2ccncc2)CC1)N1CCN(S(=O)(=O)c2ccc3ccccc3c2)C(Cc2ccccc2)C1` (configuration not stated) came in with a melting point of 186 to 188 °C.

Compound `Nn1c(C(F)(F)F)cc(=O)n(-c2cc([N+](=O)[O-])c(Br)cc2F)c1=O` gave a melting point of 165 °C.

The compound `O=C(N[C@H]1CN(C(=O)NS(=O)(=O)N2CCN(NC(=O)OCc3ccccc3)C2=O)C1=O)OCc1ccccc1` registered a melting point of 75.7 to 116 °C.

On to `COc1cc2ncc(C#N)c(C)c2cc1OCc1ccccc1`, for which the melting point lay in the range of 165 to 172 °C.

On to `CC(CNS(C)(=O)=O)n1nnc2cc3c(=O)n(C4CC4)nnc3cc2c1=O` (configuration not stated), for which the melting point was in the range of 195 to 197 °C.

The compound `CC(C)(C)OC(=O)NCC1(C(=O)O)CC1` showed a melting point of 104 to 106 °C.

Consider `COc1ccc2c(c1)C(c1ccccc1)C(=O)NCC2` (configuration not stated), for which the melting point was in the range of 155 to 170 °C.

For the compound `Cc1cc(Cl)cc(C(=O)NC(C)CSC[Si](C)(C)C)c1NC(=O)c1cc(Br)nn1-c1ncccc1Cl` (configuration not stated), the melting point fell in the range of 151 to 153 °C.

In turn, `CC1CC(c2cc3cccc(F)c3s2)CCN1` (configuration not stated) had a melting point of 45 to 47 °C.

`CC(=O)OCC(C)(Sc1cc2ccccc2[nH]1)c1ccccc1` (configuration not stated) yielded a melting point of 105 to 106 °C.

`CCOCc1nc2c(N)nc3ccccc3c2n1CC1(N)CCOCC1` gave a melting point of 53 to 63 °C.

Compound `CC(=O)NCCC1CCc2ccc3nn(C)cc3c21` (configuration not stated) registered a melting point of 123 to 125 °C.

The compound `CCCC#CC[C@H](C[C@H](N)C(=O)O)C(=O)O` had a melting point of 200 to 201 °C.

Regarding `CCCCc1nc(=O)c2ccc(C(=O)OCC)cc2[nH]1`, the melting point came out at 145 °C.

The compound `CCn1nc2c(N)nc3ncccc3c2c1CC(C)(C)O` yielded a melting point of 283 to 286 °C.

`O=Cc1ccc2c(ccc3cc4ccccc4cc32)c1` had a melting point of 144 to 145 °C.

As to `O=[N+]([O-])c1ccccc1C(=C(Br)Br)c1ccc(F)cc1`, the melting point was in the range of 99 to 100 °C.

As to `Cc1oc(-c2ccccc2)nc1COc1ccccc1CCCC1SC(=O)NC1=O` (configuration not stated), the melting point fell in the range of 173 to 174 °C.

`CCCc1c(C(C)C)cc(C(C)C)c(C(C)O)c1-c1ccc(F)cc1` (single isomer, unassigned; (+)) registered a melting point of 114 to 116 °C.

As for `Oc1ccc(-c2cc3ccccc3[nH]2)c(O)c1`, the melting point turned out to be 188 °C.

Compound `CCOC(=O)c1cc(NCc2ccccc2)c(NC2CCCCC2)c(S(N)(=O)=O)c1` gave a melting point of 176 to 177 °C.

The compound `O=C(O)CN(CC(=O)O)Cc1cc(S(=O)(=O)c2ccc(OCc3ccccc3)cc2)cc(CN(CC(=O)O)CC(=O)O)c1O` showed a melting point of 138 to 143 °C.

`COC(=O)COc1cccc(CNC(=O)C2Cc3ccccc3N2S(=O)(=O)c2ccc(-c3cccc(C(F)(F)F)c3)cc2)c1` (configuration not stated) yielded a melting point of 50 °C.

In turn, `COc1ccc(CSc2cccc(C(=O)Nc3ccc(C#N)cc3)c2)cc1` had a melting point of 167 to 169 °C.

`COc1ccc(NC(=O)NCc2ccc(-n3c(-c4cccnc4N)nc4cccnc43)cc2)cc1` came in with a melting point of 224 to 226 °C.

Regarding `CCCCc1nc2c(C)cnc(C(=O)O)c2n1Cc1ccc(-c2ccccc2-c2nnn[nH]2)cc1`, the melting point lay within 159 to 161 °C.

Compound `O=C(Oc1cc(OC(=O)c2ccccc2)c(Cl)cn1)c1ccccc1` had a melting point of 124 to 125 °C.

In the case of `CC(C)(C)C(=O)Nc1ccc(F)cc1`, the melting point was 124 to 125 °C.

Take `O=C(O)CCc1c(C(=O)O)[nH]c2cc(I)ccc12`: the melting point lay in the range of 230 to 232 °C.

Turning to `CCOC(=O)c1c(CC)nc2c(C(F)(F)F)cccc2c1O`, the melting point was 129 °C.

As to `COc1ccc(-c2nc(C)c(C(N)=O)s2)cc1`, the melting point stood at 180 °C.

For the compound `NC(=CC(=O)c1ccccn1)C1CC1`, the melting point is 145 to 150 °C.

In the case of `Cc1sc(C)c2c1CCCC2(O)c1cn(C(c2ccccc2)(c2ccccc2)c2ccccc2)cn1` (configuration not stated), the melting point was 111 to 115 °C.

Consider `CCOC(=O)CCCCOc1ccc(OC)c(OC)c1C=O`, for which the melting point was 105 to 107 °C.

`Oc1ccc2cc(-c3nc4ccc(O)cc4o3)ccc2c1` displayed a melting point of 288 to 290 °C.

`Cc1cc(C(O)=S)cc(N)c1C(=O)c1ccccc1` returned a melting point of 158 to 159 °C.

`CC(C)(OCc1cc2nc(Cl)ccc2n1S(=O)(=O)c1cccc(Cl)c1Cl)C(=O)O`: the melting point is 174 °C.

`COC(=O)c1ccc(C(=O)c2ccc(NC(C)=O)cc2)cc1` had a melting point of 212 °C.

`CCOC(=O)/C=C/c1ccc(C=Cc2nc(-c3ccco3)oc2C)cc1` showed a melting point of 123 to 124 °C.

For the compound `COC(=O)c1nnn(Cc2ccccc2F)c1C(=O)OC`, the melting point is 203 to 205 °C.

As to `CCOC(=O)c1c(-c2cc(C)c(O)c(C)c2)c(C)n2c1-c1cc(N)c(OC)cc1CC2`, the melting point was 104 to 106 °C.

`CC1(C)COC(c2ccccc2S(N)(=O)=O)=N1` had a melting point of 142 to 146 °C.

For `COC1OCC[C@@H]1NC(=O)[C@H](CC(C)C)NC(=O)[C@H](CC(C)C)NC(=O)c1ccc2c(c1)Nc1ccccc1O2` (some centres not stated), the melting point lay in the range of 178 to 179 °C.

In the case of `COc1ccc(S(=O)(=O)N(C)C)c(S(N)(=O)=O)c1`, the melting point fell in the range of 106 to 109 °C.

`Cc1nnc(NC(=O)C2c3ccccc3Oc3ccccc32)o1`: the melting point was in the range of 261 to 263 °C.

Compound `C=C1C(=CC=C2CCCC3(C)C2CCCC3C(C)CCCC(C)(C)O)CC(O)CC1O` (configuration not stated) came in with a melting point of 124 to 127 °C.

Consider `O=C(NCCCc1ccccc1)Oc1ccccc1`, for which the melting point fell in the range of 55 to 56 °C.

`COCCNc1ccc2ncnc(Nc3cccc(C)c3)c2c1` gave a melting point of 163 to 167 °C.

Turning to `CC(=O)Nc1cccc(-c2cnc3c(c2)nc(-c2cccnc2N)n3-c2ccc(CNC(=O)c3ccccc3)cc2)c1`, the melting point was in the range of 76 to 81 °C.

Turning to `CC(=O)Nc1cccc(-c2ccnc3c(C(=O)c4cccs4)cnn23)c1`, the melting point is 245 to 247 °C.

With `CC(C)(C)c1nc2c(Cl)cc(F)c(-n3c(=O)cc(C(F)(F)F)n(N)c3=O)c2o1`, the melting point lay within 90 to 92 °C.

The compound `CN1C(=O)CC[C@]2(C)c3ccc(-c4ccc(F)cc4F)cc3CC[C@@H]12` gave a melting point of 108 to 112 °C.

On to `Cc1cn(N)c2ccc(OCc3ccccc3)cc12`, for which the melting point lay within 104 to 106 °C.

Take `c1cncc(Nn2ccc3ccccc32)c1`: the melting point fell in the range of 127 to 128 °C.

For `CC(=O)NC[C@H]1CN(c2ccc(N3CCC(n4nnc(N5CCN(C(C)=O)CC5)n4)CC3)c(F)c2)C(=O)O1`, the melting point was in the range of 216 to 218 °C.

Compound `CC(=O)Nc1cccc2c1S(=O)(=O)N=C2C1=C(O)C(C(C)(C)C)N(Cc2ccc(F)cc2)C1=O` (configuration not stated) displayed a melting point of 164 to 167 °C.

`O=C(OCc1ccccc1)C(C(=O)N1CC2C(=O)CCC(c3ccccc3)(c3ccccc3)C2C1)c1ccccc1` (racemic) came in with a melting point of 210 °C.

For `OC(COc1ccccc1)c1ccccc1` (configuration not stated), the melting point was in the range of 61 to 62 °C.
